Tested on: TH-positive (dopaminergic) neurons in the SNpc
Assay: MPTP-induced neuronal death in vivo, TH-positive neurons by immunohistochemistry
Set-up: species or system C57BL/6 mice
Conditions: for viable TH-positive neurons in the SNpc: MPTP 20 mg/kg x4 on day 3, analysed 7 days after last MPTP, MPTP without minocycline 37% of control
Procedure: On day 3 mice were injected with MPTP (20 mg/kg×4). Seven days following the last injection of MPTP, the brains were analyzed by immun histochemistry to detect and quantify tyrosin hydroxylase (TH)-positive neurons.

CN(C)c1ccc(O)c2c1C[C@H]1C[C@H]3[C@H](N(C)C)C(O)=C(C(N)=O)C(=O)[C@@]3(O)C(O)=C1C2=O [minocycline]
viable TH-positive neurons in the SNpc (minocycline 90 mg/kg p.o. daily for nine days): 56 % of control
viable TH-positive neurons in the SNpc, treatment after MPTP (minocycline 120 mg/kg p.o. beginning 4 h after the last MPTP injection, MPTP without minocycline 36% of control, p<0.05): 66 % of control
viable TH-positive neurons in the SNpc (minocycline 120 mg/kg p.o. daily for nine days): 77 % of control

Source: US20030092683A1, “Use of tetracyclines as neuro-protective agents and for the treatment of parkinson's disease and related disorders” (priority 2001, published 2003)
